{"source": "patent US20100273825A1", "about": "“SOLID PHARMACEUTICAL COMPOSITION CONTAINING SOLIFENACIN AMORPHOUS FORM” (ASTELLAS PHARMA INC., priority 2009, published 2010)", "origin": "cited, not measured here", "biological_target": "M3 receptors (Homo sapiens, UniProt P20309)", "sequence (P20309 whole entry)": "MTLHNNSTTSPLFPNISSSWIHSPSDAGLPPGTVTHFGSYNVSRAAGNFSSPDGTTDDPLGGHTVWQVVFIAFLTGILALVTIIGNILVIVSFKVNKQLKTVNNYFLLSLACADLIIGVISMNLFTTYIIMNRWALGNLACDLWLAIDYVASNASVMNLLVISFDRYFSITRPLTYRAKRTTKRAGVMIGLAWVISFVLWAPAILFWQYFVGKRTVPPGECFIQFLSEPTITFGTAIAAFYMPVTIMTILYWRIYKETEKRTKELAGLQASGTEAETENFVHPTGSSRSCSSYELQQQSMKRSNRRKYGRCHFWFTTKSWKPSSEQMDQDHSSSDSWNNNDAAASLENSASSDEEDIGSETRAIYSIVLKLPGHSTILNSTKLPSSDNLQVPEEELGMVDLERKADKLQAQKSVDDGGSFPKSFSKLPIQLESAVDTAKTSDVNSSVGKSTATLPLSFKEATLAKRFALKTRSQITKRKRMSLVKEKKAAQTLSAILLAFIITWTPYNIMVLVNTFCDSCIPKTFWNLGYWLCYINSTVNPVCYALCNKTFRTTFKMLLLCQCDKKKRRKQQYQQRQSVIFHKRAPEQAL", "conditions": "M3 in smooth muscles, gland tissues; M2 in the heart", "data": [{"smiles": "O=C(O[C@H]1CN2CCC1CC2)N1CCc2ccccc2[C@@H]1c1ccccc1", "note": "[solifenacin, (R)-quinuclidin-3-yl (S)-1-phenyl-1,2,3,4-tetrahydroisoquinoline-2-carboxylate]", "values": [{"measurement": "Selectivity for M3 receptors in comparison with M2 receptors", "value": "high selectivity"}]}]}
